ChEMBL document CHEMBL1201862, “PubChem BioAssay data set” (2004)
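Step 1: Grow cells in 96-well plates. Step 2: Expose to compound for 48 hours at 5 concentrations. Step 3: Interpolate endpoints linearly; if unreached, use highest concentration. The concentration for 50% growth inhibition is given as GI50.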 Calls of active or inactive are those of the source. Rule as the data show it: active = GI50 up to about 1.1 µM and inactive = higher.

Legend:
Assay in all cases: DTP human tumour cell line panel, 48 h
[1] = system: NCI-H460
[2] = system: MOLT-4
[3] = system: LOX IMVI
[4] = system: UO-31
[5] = system: IGROV-1
[6] = system: RXF 393
[7] = system: SN12C
[8] = system: HCC 2998
[9] = system: SW-620
[10] = system: K562
[11] = system: OVCAR-4
[12] = system: SNB-19
[13] = system: HT-29
[14] = system: RPMI-8226
[15] = system: SK-MEL-5
[16] = system: COLO 205
[17] = system: NCI/ADR-RES
[18] = system: OVCAR-5
[19] = system: PC-3
[20] = system: T47D

Measured: GI50

COc1ccc(C(=O)CC(=O)C(=O)Nc2ccc(C)c(C)c2)cc1
inactive: [1] > 41.3 µM | [2] > 53.2 µM | [3] 23.7 µM | [4] 98.6 µM | [5] > 93.3 µM | [6] > 54.5 µM | [7] > 91.6 µM | [8] 97.3 µM | [9] 28.4 µM | [10] 53.6 µM | [11] 85.5 µM | [12] > 100 µM | [13] > 100 µM | [14] > 47.5 µM | [15] 97.9 µM | [16] > 51.9 µM

CN(CC(=O)O)Cc1c[nH]c2ccccc12
inactive: [17] > 100 µM | [1] > 100 µM | [2] > 100 µM | [3] > 100 µM | [4] > 100 µM | [5] > 100 µM | [6] > 100 µM | [7] > 100 µM | [9] > 100 µM | [10] > 100 µM | [18] > 100 µM | [11] > 100 µM | [12] > 100 µM | [13] > 100 µM | [19] > 100 µM | [14] > 100 µM | [15] > 100 µM | [16] > 100 µM

COc1ccc(OC(C)C(=O)O)c2c1CCCC2=O (stereo not given)
inactive: [1] > 100 µM | [2] > 100 µM | [3] > 100 µM | [4] > 100 µM | [5] > 100 µM | [6] > 100 µM | [7] > 100 µM | [8] > 100 µM | [9] > 100 µM | [10] > 100 µM | [18] > 100 µM | [11] > 100 µM | [12] > 100 µM | [13] > 100 µM | [14] > 100 µM | [15] > 100 µM | [16] > 100 µM

C/C(=N/OCCC(=O)O)C1CC1
inactive: [1] > 100 µM | [3] > 100 µM | [4] > 100 µM | [5] > 100 µM | [6] > 100 µM | [7] > 100 µM | [8] > 100 µM | [9] > 100 µM | [10] > 100 µM | [11] > 100 µM | [12] > 100 µM | [13] > 100 µM | [14] > 100 µM | [15] > 100 µM | [16] > 100 µM

O=c1c(Nc2ccccc2)cn(CCOc2ccccc2)c(=O)n1CCOc1ccccc1
inactive: [17] 47.2 µM | [1] > 100 µM | [2] > 100 µM | [3] > 100 µM | [4] 44.4 µM | [5] 36.3 µM | [6] 48.4 µM | [7] > 100 µM | [8] 63.1 µM | [9] > 100 µM | [10] > 100 µM | [18] 57.5 µM | [11] 19.8 µM | [12] 31.5 µM | [13] > 100 µM | [19] 34.8 µM | [14] > 100 µM | [15] 47.9 µM | [16] 69.3 µM

CC(=O)N(C(C)=O)n1c(Cc2ccc(Cl)cc2)n[nH]c1=O
inactive: [17] > 100 µM | [1] > 100 µM | [2] > 100 µM | [3] > 88.5 µM | [4] > 100 µM | [5] > 100 µM | [6] 28.5 µM | [7] > 100 µM | [8] > 100 µM | [9] > 100 µM | [10] > 100 µM | [18] > 100 µM | [11] > 100 µM | [12] > 100 µM | [13] > 100 µM | [19] > 100 µM | [14] > 100 µM | [15] > 100 µM | [16] > 100 µM

CCCCCCC(=O)CC(=O)C(=O)Nc1ccccc1C
inactive: [1] > 51.1 µM | [2] > 100 µM | [3] > 43 µM | [4] > 100 µM | [5] > 100 µM | [6] > 100 µM | [7] > 100 µM | [8] > 100 µM | [9] > 39.7 µM | [10] > 100 µM | [18] > 100 µM | [11] > 100 µM | [12] > 100 µM | [13] > 100 µM | [14] > 100 µM | [15] > 100 µM | [16] > 57.1 µM

COc1ccc(-c2c(C3=NCCN3)nnn2-c2ccccc2)cc1
inactive: [1] > 100 µM | [2] > 100 µM | [3] > 100 µM | [4] > 100 µM | [5] > 100 µM | [6] > 100 µM | [7] > 100 µM | [8] > 100 µM | [9] > 100 µM | [10] > 100 µM | [18] > 100 µM | [11] > 100 µM | [12] > 100 µM | [13] 91.2 µM | [14] > 100 µM | [15] > 100 µM | [16] 98.9 µM

Cn1/c(=N\S(=O)(=O)c2ccccc2)[nH]c2ccccc21
inactive: [17] 91.8 µM | [1] > 100 µM | [2] > 100 µM | [4] > 100 µM | [5] > 100 µM | [6] > 100 µM | [7] > 100 µM | [8] > 100 µM | [9] > 100 µM | [10] > 100 µM | [18] > 100 µM | [11] > 100 µM | [12] > 100 µM | [13] > 100 µM | [20] > 100 µM | [14] > 100 µM | [15] > 100 µM | [16] > 100 µM

CCc1ccccc1NC(=O)C1=C(C)NC(C)=C(C(=O)Nc2ccccc2CC)C1c1ccc(NC(C)=O)cc1
inactive: [1] 30.5 µM | [2] 15.3 µM | [3] 16.1 µM | [4] 35.2 µM | [5] 28.4 µM | [6] 17.4 µM | [7] 29.8 µM | [8] 19.5 µM | [9] 41.2 µM | [10] 23.1 µM | [18] > 100 µM | [11] 35.1 µM | [12] 92.7 µM | [13] 37.7 µM | [14] 17 µM | [15] 38.1 µM | [16] 58.3 µM

CC(C)(Oc1ccc(/C=C/C(=O)c2ccccc2)cc1)C(=O)Nc1c(Cl)cccc1Cl
inactive: [1] > 10 µM | [2] > 10 µM | [3] > 10 µM | [4] > 10 µM | [5] > 10 µM | [6] > 10 µM | [7] > 10 µM | [8] > 10 µM | [9] 7.08 µM | [10] 17 µM | [18] > 10 µM | [11] > 10 µM | [12] > 10 µM | [13] > 10 µM | [14] > 10 µM | [15] > 10 µM | [16] > 10 µM

CC(C)C(NCc1c2ccccc2nc2ccccc12)C(=O)O (stereo not given)
inactive: [1] 31.1 µM | [2] 15.2 µM | [3] 30.5 µM | [5] 27.4 µM | [6] 24.5 µM | [7] 50 µM | [8] 47.9 µM | [9] 39.9 µM | [10] 32.6 µM | [18] > 100 µM | [11] 15 µM | [13] 30.7 µM | [14] 27.3 µM | [15] 64.4 µM | [16] 72.8 µM

O=[N+]([O-])c1ccc(-n2nnc(C3=NCCN3)c2-c2ccc(Cl)cc2)cc1
inactive: [1] 91.4 µM | [2] 65.3 µM | [3] > 100 µM | [4] 83.2 µM | [5] > 100 µM | [6] 93.3 µM | [7] > 100 µM | [8] > 100 µM | [9] > 100 µM | [10] 83.8 µM | [18] > 100 µM | [11] > 100 µM | [12] > 100 µM | [13] 66.8 µM | [14] > 100 µM | [15] > 100 µM | [16] 51.6 µM

Cc1ccc(S(=O)(=O)Nn2c(C)cc3ccc(S(=O)(=O)Nc4ccccc4[N+](=O)[O-])cc3c2=O)cc1
inactive: [17] > 100 µM | [1] 77.3 µM | [2] > 100 µM | [3] > 100 µM | [4] 63.7 µM | [5] 43 µM | [7] 82.4 µM | [8] > 100 µM | [9] > 100 µM | [10] 3.85 µM | [18] > 100 µM | [11] > 100 µM | [12] > 100 µM | [13] > 100 µM | [19] 31.6 µM | [14] 62.8 µM | [16] 18.6 µM

c1ccc(-c2nnc(-c3nn(-c4ccccc4)c4nc5ccccc5nc34)o2)cc1
inactive: [1] > 10 µM | [2] 21.5 µM | [3] > 100 µM | [4] 37.2 µM | [5] > 100 µM | [6] 4.3 µM | [7] > 100 µM | [8] > 100 µM | [9] 92.3 µM | [10] 31 µM | [18] > 100 µM | [11] > 100 µM | [12] > 100 µM | [13] > 100 µM | [14] 39.1 µM | [16] 93.8 µM

CC(=O)Nc1ccc(S(=O)(=O)Nc2nnc(S(N)(=O)=O)s2)cc1
inactive: [17] > 100 µM | [1] > 100 µM | [2] > 100 µM | [3] > 100 µM | [4] > 100 µM | [6] > 100 µM | [8] > 100 µM | [9] > 100 µM | [18] > 100 µM | [11] > 100 µM | [12] > 100 µM | [13] > 100 µM | [20] > 100 µM | [14] > 100 µM | [16] > 100 µM
